In paper PMC5778159 (Naunyn-Schmiedeberg's Archives of Pharmacology, 2017):
Counter-ions that a name gives are not always drawn.

How the values were obtained:
[1] = Pharmacokinetic study in rats after single i.v. or i.p. tianeptine, non-compartmental analysis; details: rat
Protocol: Male Wistar rats, 13–15 weeks of age and weighing between 200 and 220 g, were used in all the experiments. They were kept under conditions of constant temperature (21–25 °C) and a relative humidity of approximately 40–65% with a standard light/dark cycle. Animals were housed in the stainless steel cages with suspended wire-mesh floors and had free access to water and the commercial rodent chow.
Six rats were used in PK experiments, and 3 days prior to the experiment, rat jugular vein was cannulated allowing for the multiple blood sampling from a single animal. […] Plasma was harvested by centrifuging at 3000 r.p.m. for 10 min and stored at − 30°C until bioanalysis. Plasma samples (100 μL) were further processed as described in “Sample preparation” section.
(§1) Pharmacokinetic parameters were calculated by employing a non-compartmental approach, using Phoenix WinNonlin software v. 6.3 (Pharsight, USA). For i.v. administration, plasma concentration at time zero (C 0) was back-extrapolated using log-linear regression, while the maximum concentration after i.p. administration (C max) and the time to C max (t max) were obtained directly from the concentration-time data. The area under the mean plasma concentration versus time curve extrapolated to infinity (AUC0-inf) was estimated using the log/linear trapezoidal rule. AUMC0-inf was estimated by calculation of the total area under the first-moment curve by combining the trapezoid calculation of AUMC0-t and extrapolated area. The mean residence time (MRT) was calculated from AUMC0-inf/AUC0-inf. The terminal rate constant (λ z) was calculated by log-linear regression of the drug concentration data in the terminal phase and the terminal half-life (t 1/2) was calculated as 0.693/λ z. The systemic clearance (CL) was estimated from the administered dose divided by AUC0-inf. The volume of distribution at steady state (V ss) was calculated from D i.v.⋅AUMC/AUC^2, where D i.v is the dose administered i.v. in mg per kg of body weight. The concentration versus time profiles of the parent drug and metabolite following both routes of administration were also fitted simultaneously to the pharmacokinetic model with a metabolite compartment to obtain one set of parameters. During iteration process, the fraction of dose absorbed (F) was fixed to the value calculated using the following equation:1 F=AUC0−ti.p.∙Di.v./AUC0−ti.v.∙Di.p.
where AUC0-t is the area under the concentration versus time curve calculated to the last measured point and D is the dose administered.

[2] = PK model with a metabolite compartment fitted simultaneously to i.v. and i.p. rat plasma data
Protocol: as §1

[3] = Isolated perfused rat liver (IPRL) study, recirculating; details: for form eliminated with bile: mass spectrometric analysis of rat bile, precursor ion 292 mode
Protocol: Rat livers were perfused in situ using PS-1 perfusion system from Harvard Apparatus-Hugo Sachs Electronics (HA-HSE). […] The temperature of the perfusion medium was thermostatically controlled at 37 °C. In each experiment, the common bile duct was cannulated with PE-10 tubing. […] Experiments were carried out in a recirculating manner with the total volume of perfusate equal 200 mL. […] Samples of bile were collected in pre-weighed Eppendorf vials and measured by gravimetric volume at the end of perfusion period, assuming a density of 1. Perfusate was collected from the reservoir at 5 min intervals up to 45 min.
Non-compartmental estimates of hepatic pharmacokinetic parameters were determined from the outflow concentration-time profiles. The hepatic extraction ratio (ERH) was calculated according to the following equation:2 ERH=CLH/Q where CLH is a hepatic clearance (per gram of liver) and Q is a perfusate flow (per gram of liver).
The apparent hepatobiliary clearance (CLb,app) was calculated as the cumulative amount of drug excreted in bile divided by the AUC0-t of the drug in the perfusate.

[4] = humans ref Carlhant et al. [1990]; cited from earlier work
[5] = Stability of analytes in rat plasma (bench top, freezer, freeze/thaw, autosampler); type: in vitro ADME; details: bench top 2 h, − 30°C 90 days, autosampler 10°C up to 24 h
Protocol: The stability of analytes was determined in the battery of tests according to the appropriate guidelines. Namely, the bench top stability (for 2 h), freezer stability (at − 30°C for 90 days), freeze/thaw stability and post preparative autosampler stability (at 10°C up to 24 h). Samples were considered to be stable when 85–115% of the initial concentrations were found.

[6] = male, Wistar, in vivo, ip, 10 mg/kg
[7] = male, Wistar, in vivo, iv, 1 mg/kg

Row | SMILES | time at which C max attained ([1]; after both routes of administration (i.v. and i.p.) of tianeptine) [min] | t 0.5λz ([1]; after tianeptine i.p. 10 mg/kg, GM (90% CI), n = 3) | Cmax [1, 6] [ng/mL] | MRT [1, 6] [h] | Tmax [1, 6] [h] | k el [1, 6] [s⁻¹] | MRT [1, 7] [h] | Tmax [1, 7] [h] | half-life [1, 7] [h] | k el [1, 7] [s⁻¹] | overall exposure (AUC) to MC5 relative to tianeptine ([1]; regardless of the route of administration) [times] | half-life ([2]; male, Wistar, in vivo) [h] | k el ([2]; male, Wistar, in vivo) [s⁻¹] | V m/f m ([2]; metabolite compartment, i.v. and i.p. fitted simultaneously) [L/kg] | metabolic ratio of MC5 (AUC0-t metabolite / AUC0-t tianeptine) ([3]; isolated perfused rat liver, mean ± SD) [%] | form eliminated with bile [3] | percent eliminated into the bile ([3]; up to 45 min of perfusion, mean ± SD) | time to C max [4] [h] | stability in rat plasma [5]
1 | CN1c2ccccc2C(NCCCCC(=O)O)c2ccc(Cl)cc2S1(=O)=O (centres unmarked) [MC5, tianeptine metabolite MC5 sodium salt] | 30 | 3.69 (1.39–9.83) h | 2020 | 4.1 | 0.5 | 5.19e-05 | 8.28 | 0.4 | 7.53 | 2.5e-05 | 1.2 | 1.66 | 0.000116 | 2.971 | 18.76 ± 8.11 | glucuronide and glutamine conjugates | 3.07 ± 0.66 % of the administered dose | 2.96 ± 0.95 | no stability related problems
2 | CN1c2ccccc2C(NCCCCCCC(=O)O)c2ccc(Cl)cc2S1(=O)=O (centres unmarked) [Tianeptine, Tianeptine sodium salt, reference compound] |  |  |  |  |  |  |  |  |  |  |  |  |  |  |  | glucuronide and glutamine conjugates |  |  | 
